From patent publication US10420768B2, “Pyrrolopyrimidine derivatives as NR2B NMDA receptor antagonists” (Rugen Holdings (Cayman) Limited, priority 2014, dated 2019)

Tests used:
[1] = system: rats; test: Haloperidol-induced catalepsy (HIC) model; type: in vivo, rat; conditions: positive control 8 mg/kg
[2] = system: rats; test: Electroconvulsive threshold (ECT) test; type: in vivo, rat
[3] = system: mice (strain NLMN); test: Forced swim test; type: in vivo, mouse; conditions: positive control 32 mg/kg IP

CC(N)Cc1ccccc1 (stereo not shown) [amphetamine] was tested, and the “anticataleptic activity (catalepsy score)” value [1] was “showed the expected robust anticataleptic activity”.

With CN1C(=O)CN=C(c2ccccc2)c2cc(Cl)ccc21 [diazepam] the “anticonvulsant activity (electroconvulsive threshold)” value ([2]; positive control 16 mg/kg p.o.) was “showed the expected pro- and anticonvulsant activities”.

In the case of CN(C)CCCN1c2ccccc2CCc2ccccc21 [imipramine], the “antidepressant activity (immobility time)” value [3] is reported as “showed the expected antidepressant activity”.

With Cn1c(=O)c2[nH]cnc2n(C)c1=O [theophylline, Theophylline] the “proconvulsant activity (electroconvulsive threshold)” value ([2]; positive control 128 mg/kg p.o.) was “showed the expected pro- and anticonvulsant activities”.
